Article PMC5860131, “Identification of natural products as novel ligands for the human 5-HT2C receptor” (Biophysics Reports, 2018)

Tests used:
[1] = molecular target: T1, 5-HT2C receptor T139^3.37A (Homo sapiens, UniProt P28335, DEL255-298/G251D/H250E/H252N/INS299[…]/L248D/M247A/M300L/T139A/T253W); assay: Affinity MS assay, 5-HT2C mutant T139A; format: binding; settings: mutant T139^3.37A, n = 2
T1 construct: the N- and C-terminals were truncated by 39 and 65 residues, respectively; PreScission protease site + 10× His (C); made in house
T1 sequence (P28335 with tags, fused parts or gaps with the stated changes): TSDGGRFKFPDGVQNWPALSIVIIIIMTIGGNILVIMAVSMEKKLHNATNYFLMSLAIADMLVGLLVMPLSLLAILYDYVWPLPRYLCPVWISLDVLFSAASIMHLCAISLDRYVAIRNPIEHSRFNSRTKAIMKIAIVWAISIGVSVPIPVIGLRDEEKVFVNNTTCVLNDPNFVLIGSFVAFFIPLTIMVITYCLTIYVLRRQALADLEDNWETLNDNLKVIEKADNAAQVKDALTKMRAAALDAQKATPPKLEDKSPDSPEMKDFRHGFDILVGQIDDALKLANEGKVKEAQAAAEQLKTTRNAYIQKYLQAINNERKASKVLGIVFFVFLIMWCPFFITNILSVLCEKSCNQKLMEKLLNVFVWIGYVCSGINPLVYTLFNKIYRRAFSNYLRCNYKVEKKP
Source text: Based on the binding poses predicted by molecular docking, single-point mutations were designed to test their impact on ligand binding. Mutations of several residues include the highly conserved Asp134^3.32, which is known to cause 5-HT1B or 5-HT2B receptors to abolish the monoamine ligand binding as reported in the literature (Wang et al. [2013]). In this study, residues forming hydrophobic interactions with the substitution groups on the aporphine scaffold of (–)-crebanine (1) were selected for mutation as well and they are Thr139^3.37, Gly218^5.42, Ala222^5.46, and Leu209^ECL2. Effects of those mutations were tested with the CPM assay and the affinity MS assay (Table 2). In the affinity MS experiment, relative ligand-binding capacity (represented by binding %) to different mutants and the wild-type receptor was compared. Among the six mutations tested, five of them reduced the binding of (–)-crebanine (1) by more than 40% relative to binding to the wild-type receptor, displaying the importance of hydrophobic interactions. […]
Four experimental replicates were prepared for each pair of the test ligand and the negative control. […] S/C ratios refer to the ratio of MS response of a specific ligand detected in the 5-HT2C incubation sample versus the control. […]

[2] = test system: cortical pyramidal neurons; assay: Whole-cell patch clamp recording of spontaneous synaptic current (SPSC) in brain slices; format: cell-based; settings: 30 μmol/L compound incubation, 10 μmol/L 5-HT; mouse brain slices
Procedure: 5-HT receptors play important roles in central and peripheral nervous systems. Malfunctions of these receptors have been linked to many neural disorders such as depression and psychosis. The effect of (–)-crebanine on changes in 5-HT induced synaptic transmission was evaluated by electrophysiological recording of mouse brain slices (Jang et al. [2012]). The spontaneous synaptic current (SPSC) of cortical pyramidal neurons was recorded in whole cell mode.
Cortical slices from ICR mouse of both genders (15–21 days) were prepared for electrophysiological recording. In brief, the animals were decapitated and brains were placed in cold sucrose artificial cerebrospinal fluid (sucrose-ASCF, in mmol/L: sucrose 213, KCl 2.5, NaH2PO4 1.25, NaHCO3 26, D-glucose 10, MgSO4 2, CaCl2 2, pH 7.4, 0–4 °C, saturated with 95% O2 and 5% CO2). The brains were cut into 280 or 300 μm slices with a vibratome (Leica VT1200S, Germany); slices were then incubated with ACSF (in mmol/L: NaCl 126, KCl 2.5, NaH2PO4 1.25, NaHCO3 26, D-glucose 25, MgSO4 2, CaCl2 2, pH 7.4, saturated with 95% O2 and 5% CO2) at room temperature for 1 h.
A whole-cell patch clamp technique was used. […] Activity of cortical pyramidal neurons was recorded using an amplifier (HEKA EPC 10 USB, Germany) in the voltage clamp mode. […]

Compound: COc1ccc2c(c1OC)C[C@@H]1c3c(cc4c(c3-2)OCO4)CCN1C [Compound 1, (–)-crebanine]
- (–)-Crebanine/MS relative ligand binding [1]: 14.64%
- effect on 5-HT induced SPSC [2]: significantly attenuated
